Source: PubChem BioAssay (NCI)
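A five-concentration, 48-hour dose response in 96-well plates underlies each endpoint, interpolated linearly between surrounding concentrations. TGI: total growth inhibition.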

What was measured:
Assay in all cases: NCI anticancer screen, dose series, 48 h
NCI-H522 lung = system: NCI-H522 lung
UO-31 renal = system: UO-31 renal
TK-10 renal = system: TK-10 renal
HCT-15 colon = system: HCT-15 colon
MDA-MB-435 = system: MDA-MB-435
OVCAR-5 ovarian = system: OVCAR-5 ovarian
OVCAR-8 ovarian = system: OVCAR-8 ovarian
SF-295 CNS = system: SF-295 CNS
CCRF-CEM leukemia = system: CCRF-CEM leukemia
UACC-257 melanoma = system: UACC-257 melanoma
NCI/ADR-RES ovarian = system: NCI/ADR-RES ovarian
SNB-75 CNS = system: SNB-75 CNS
HOP-92 NSCLC = system: HOP-92 NSCLC
ACHN renal = system: ACHN renal
SN12C renal = system: SN12C renal
RXF 393 renal = system: RXF 393 renal
786-0 renal = system: 786-0 renal
HT29 colon = system: HT29 colon
NCI-H226 lung = system: NCI-H226 lung
A549 NSCLC = system: A549 NSCLC
UACC-62 melanoma = system: UACC-62 melanoma
M14 melanoma = system: M14 melanoma
MCF7 breast = system: MCF7 breast
SK-MEL-5 melanoma = system: SK-MEL-5 melanoma
T-47D breast = system: T-47D breast
NCI-H23 lung = system: NCI-H23 lung
A498 renal = system: A498 renal
KM12 colon = system: KM12 colon
SW-620 colon = system: SW-620 colon
NCI-H460 lung = system: NCI-H460 lung
SK-OV-3 ovarian = system: SK-OV-3 ovarian
OVCAR-4 ovarian = system: OVCAR-4 ovarian
COLO 205 colon = system: COLO 205 colon
RPMI-8226 leukemia = system: RPMI-8226 leukemia
OVCAR-3 ovarian = system: OVCAR-3 ovarian
SF-539 CNS = system: SF-539 CNS
HCC-2998 colon = system: HCC-2998 colon
SF-268 CNS = system: SF-268 CNS
MOLT-4 leukemia = system: MOLT-4 leukemia
LOX IMVI melanoma = system: LOX IMVI melanoma
DU-145 prostate = system: DU-145 prostate
MDA-N = system: MDA-N
HOP-62 NSCLC = system: HOP-62 NSCLC
HL-60(TB) leukemia = system: HL-60(TB) leukemia
CAKI-1 renal = system: CAKI-1 renal
EKVX NSCLC = system: EKVX NSCLC
HS 578T breast = system: HS 578T breast
HCT-116 colon = system: HCT-116 colon
U251 CNS = system: U251 CNS
IGROV1 ovarian = system: IGROV1 ovarian
MDA-MB-231 breast = system: MDA-MB-231 breast
SK-MEL-28 melanoma = system: SK-MEL-28 melanoma
SNB-19 CNS = system: SNB-19 CNS
BT-549 breast = system: BT-549 breast

Measured: TGI

CC(C(=O)COCc1ccccc1)P1(=O)OC(C)(C)CN1C(C)(C)C (stereo not drawn)
> 100 µM: NCI-H522 lung | UO-31 renal | TK-10 renal | HCT-15 colon | MDA-MB-435 | OVCAR-5 ovarian | OVCAR-8 ovarian | SF-295 CNS | CCRF-CEM leukemia | UACC-257 melanoma | NCI/ADR-RES ovarian | SNB-75 CNS | HOP-92 NSCLC | ACHN renal | SN12C renal | RXF 393 renal | 786-0 renal | HT29 colon | NCI-H226 lung | A549 NSCLC | UACC-62 melanoma | M14 melanoma | MCF7 breast | SK-MEL-5 melanoma | T-47D breast | NCI-H23 lung | A498 renal | KM12 colon | SW-620 colon | NCI-H460 lung | SK-OV-3 ovarian | OVCAR-4 ovarian | COLO 205 colon | RPMI-8226 leukemia | OVCAR-3 ovarian | SF-539 CNS | HCC-2998 colon | SF-268 CNS | MOLT-4 leukemia | LOX IMVI melanoma | DU-145 prostate | MDA-N | HOP-62 NSCLC | HL-60(TB) leukemia | CAKI-1 renal | EKVX NSCLC | HS 578T breast | HCT-116 colon

CNc1nncc2[nH]cnc12
> 100 µM: UO-31 renal | TK-10 renal | U251 CNS | HCT-15 colon | IGROV1 ovarian | MDA-MB-435 | OVCAR-8 ovarian | CCRF-CEM leukemia | UACC-257 melanoma | SNB-75 CNS | HOP-92 NSCLC | ACHN renal | MDA-MB-231 breast | SN12C renal | RXF 393 renal | 786-0 renal | HT29 colon | UACC-62 melanoma | MCF7 breast | SK-MEL-5 melanoma | T-47D breast | A498 renal | KM12 colon | SW-620 colon | SK-OV-3 ovarian | SK-MEL-28 melanoma | SNB-19 CNS | COLO 205 colon | RPMI-8226 leukemia | BT-549 breast | SF-268 CNS | MOLT-4 leukemia | LOX IMVI melanoma | DU-145 prostate | MDA-N | HL-60(TB) leukemia | CAKI-1 renal | EKVX NSCLC | HS 578T breast | HCT-116 colon
